Values after ≈ are worked out from the molar mass of the structure shown. Marks after values point to notes of the source that are not given here.
What was measured:
E. coli NIHJ = experiment: antibacterial activity (MIC), standard method of Japanese Society of Chemotherapy; settings: Escherichia coli
P. vulgaris, 08601 = experiment: as above; settings: Proteus vulgaris, 08601, P. vulgaris
S. marscecens, 10100 = experiment: as above
P. aeruginosa, 32104 = experiment: as above; settings: Pseudomonas aeruginosa
P. aeruginosa, 32121 = experiment: as above; settings: Pseudomonas aeruginosa
S. aureus, 209P = experiment: as above; settings: Staphylococcus aureus
S. epidermidis, 56500 = experiment: as above; settings: Staphylococcus epidermidis, 56500, S. epidermidis
E. faecalis, ATCC 19433 = experiment: as above; settings: Enterococcus faecalis, ATCC19433, E. faecalis
[1] = system: S. aureus, 87037 (LVFX-resistant MRSA); experiment: as above; settings: Staphylococcus aureus, MRSA
[2] = system: S. pneumoniae, J24 (penicillin-intermediate resistant bacteria); experiment: as above; settings: Streptococcus pneumoniae
hERG K+ channel = hERG K+ channel (Homo sapiens, UniProt Q12809); experiment: hERG-K^+ channel blocking effect
[3] = potential convulsant activity upon intracisternal administration, with and without 4-biphenyl acetic acid (BPAA); settings: 5 μg/5 μL/mouse i. cist
Procedure: The potential convulsant activity upon intracisternal administration to mouse was also evaluated for the concomitant and administration with 4-biphenyl acetic acid (BPAA: an active metabolite of fenbufen) and in the absence of such concomitant administration. The evaluation was conducted by using 4 week old male Slc:ddY mice (6 animals per group) and intracisternally administering the test substance at a dose of 5 μg/5 μL/mouse (solvent, 0.5% lactic acid). Monitoring of the animals for the convulsion and death was started immediately after the administration and continued to 30 minutes after the administration. When used concomitantly with the BPAA, BPAA was suspended in 5% CMC, and 400 mg/kg was orally administered at a solution amount of 10 mL/kg, and the test substance was intracisternally administered 30 minutes after the BPAA.

[4] = S. aureus, 87037 (LVFX-resistant MRSA)

Sequence of hERG K+ channel (Q12809 whole entry): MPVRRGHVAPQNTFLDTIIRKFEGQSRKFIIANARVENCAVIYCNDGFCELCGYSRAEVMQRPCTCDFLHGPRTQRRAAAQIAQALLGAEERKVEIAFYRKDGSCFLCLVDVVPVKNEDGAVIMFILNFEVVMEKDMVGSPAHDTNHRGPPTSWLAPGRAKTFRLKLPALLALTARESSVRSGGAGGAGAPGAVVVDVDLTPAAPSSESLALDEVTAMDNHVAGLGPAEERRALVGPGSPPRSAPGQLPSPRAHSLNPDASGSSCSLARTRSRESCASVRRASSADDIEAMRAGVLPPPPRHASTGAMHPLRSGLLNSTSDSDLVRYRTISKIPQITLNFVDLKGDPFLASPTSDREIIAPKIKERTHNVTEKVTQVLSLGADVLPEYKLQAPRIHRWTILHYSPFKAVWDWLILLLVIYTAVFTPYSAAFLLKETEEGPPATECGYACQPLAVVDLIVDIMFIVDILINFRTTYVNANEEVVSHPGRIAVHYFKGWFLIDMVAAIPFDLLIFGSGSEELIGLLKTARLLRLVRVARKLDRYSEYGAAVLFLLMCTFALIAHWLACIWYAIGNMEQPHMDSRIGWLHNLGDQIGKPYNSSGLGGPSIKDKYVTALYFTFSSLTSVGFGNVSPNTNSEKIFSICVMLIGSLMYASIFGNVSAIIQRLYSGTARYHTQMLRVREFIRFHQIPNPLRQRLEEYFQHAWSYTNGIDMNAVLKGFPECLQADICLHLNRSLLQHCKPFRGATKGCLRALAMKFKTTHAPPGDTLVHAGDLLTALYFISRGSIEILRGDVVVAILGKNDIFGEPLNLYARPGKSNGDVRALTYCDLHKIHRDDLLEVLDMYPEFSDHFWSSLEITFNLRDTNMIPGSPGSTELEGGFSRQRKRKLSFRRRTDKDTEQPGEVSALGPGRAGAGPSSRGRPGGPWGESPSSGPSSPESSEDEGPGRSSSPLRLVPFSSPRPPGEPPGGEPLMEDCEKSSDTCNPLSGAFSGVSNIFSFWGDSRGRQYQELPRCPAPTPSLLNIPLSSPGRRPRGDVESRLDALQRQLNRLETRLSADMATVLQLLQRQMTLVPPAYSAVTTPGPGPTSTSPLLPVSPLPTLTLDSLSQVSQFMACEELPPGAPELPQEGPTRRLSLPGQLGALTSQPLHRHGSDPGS

Compound	melting point	MIC (E. coli NIHJ) [µg/mL]	MIC (P. vulgaris, 08601) [µg/mL]	MIC (S. marscecens, 10100) [µg/mL]	MIC (P. aeruginosa, 32104) [µg/mL]	MIC (P. aeruginosa, 32121) [µg/mL]	MIC (S. aureus, 209P) [µg/mL]	MIC (S. epidermidis, 56500) [µg/mL]	MIC (E. faecalis, ATCC 19433) [µg/mL]	MIC [1, 4] [µg/mL]	MIC [2] [µg/mL]	inhibition at 30 µM (hERG K+ channel) [%]	inhibition at 100 µM (hERG K+ channel) [%]	inhibition at 300 µM (hERG K+ channel) [%]	MIC [1] [µg/mL]	number of dead animals ([3]; (with BPAA 400 mg/kg oral, 30 minutes before))	number of dead animals ([3]; (without BPAA))
C=C1CN(c2c(F)cc3c(=O)c(C(=O)O)cn([C@@H]4C[C@@H]4F)c3c2OC)C[C@@]1(C)N [Example 15, 7-[(3S)-3-Amino-3-methyl-4-methylenepyrrolidine-1-yl]-6-fluoro-1-[(1R,2S)-2-fluorocyclopropyl]-8-methoxy-1,4-dihydro-4-oxoquinoline-3-carboxylic acid]	100 to 102 °C	0.012 (≈ 0.0296 µM)	0.025 (≈ 0.0617 µM)	0.2 (≈ 0.493 µM)	0.39 (≈ 0.962 µM)	0.2 (≈ 0.493 µM)	0.05 (≈ 0.123 µM)	0.1 (≈ 0.247 µM)	0.2 (≈ 0.493 µM)	0.78 (≈ 1.92 µM)	0.1 (≈ 0.247 µM)						
Cc1c(N2C[C@H](CF)[C@](C)(N)C2)c(F)cc2c(=O)c(C(=O)O)cn([C@@H]3C[C@@H]3F)c12 [Example 22, 7-[(3S,4S)-3-Amino-4-fluoromethyl-3-methylpyrrolidin-1-yl]-6-fluoro-1-[(1R,2S)-2-fluoro-1-cyclopropyl]-8-methyl-1,4-dihydro-4-oxoquinoline-3-carboxylic acid]	135 to 137 °C	0.012 (≈ 0.0293 µM)	0.012 (≈ 0.0293 µM)	0.1 (≈ 0.244 µM)	0.39 (≈ 0.953 µM)	0.1 (≈ 0.244 µM)	0.025 (≈ 0.0611 µM)	0.05 (≈ 0.122 µM)	0.2 (≈ 0.489 µM)	0.78 (≈ 1.91 µM)	0.1 (≈ 0.244 µM)	-1.3 ± 10.1	-0.6 ± 7.9	21.5 ± 6.9			
Cc1c(N2CC(F)[C@](C)(N)C2)c(F)cc2c(=O)c(C(=O)O)cn([C@@H]3C[C@@H]3F)c12 (single isomer, unassigned) [Example 27]	215 to 217 °C	0.006 (≈ 0.0152 µM)	0.006 (≈ 0.0152 µM)	0.1 (≈ 0.253 µM)	0.39 (≈ 0.986 µM)	0.1 (≈ 0.253 µM)	0.012 (≈ 0.0304 µM)	0.05 (≈ 0.126 µM)	0.2 (≈ 0.506 µM)	0.39 (≈ 0.986 µM)	0.1 (≈ 0.253 µM)	-1.8 ± 6.8	0.6 ± 8	8.9 ± 11			
COc1c(N2CC(CF)C(C)(N)C2)c(F)cc2c(=O)c(C(=O)O)cn([C@@H]3C[C@@H]3F)c12 (single isomer, unassigned) [Example 8, 7-[(3R*,4S*)-3-Amino-4-fluoromethyl-3-methylpyrrolidin-1-yl]-6-fluoro-1-[(1R,2S)-2-fluorocyclopropyl]-8-methoxy-1,4-dihydro-4-oxoguinoline-3-carboxylic acid]	186 to 189 °C	0.012 (≈ 0.0282 µM)	0.025 (≈ 0.0588 µM)	0.2 (≈ 0.47 µM)	0.78 (≈ 1.83 µM)	0.2 (≈ 0.47 µM)	0.025 (≈ 0.0588 µM)	0.1 (≈ 0.235 µM)	0.2 (≈ 0.47 µM)	0.78 (≈ 1.83 µM)	0.1 (≈ 0.235 µM)	1.5 ± 1.8	2.1 ± 2.3	2.3 ± 7.3			
COc1c(N2CCNC(C)C2)c(F)cc2c(=O)c(C(=O)O)cn(C3CC3)c12 (stereo not shown) [GTFX, gatifloxacin, reference compound]		0.006 (≈ 0.016 µM)	0.006 (≈ 0.016 µM)	0.1 (≈ 0.266 µM)	0.2 (≈ 0.533 µM)	0.1 (≈ 0.266 µM)	0.05 (≈ 0.133 µM)	0.2 (≈ 0.533 µM)	0.39 (≈ 1.04 µM)		0.2 (≈ 0.533 µM)	8.1 ± 6	17.6 ± 11.5	39 ± 10.8	1.56 (≈ 4.16 µM)		
O=C(O)c1cn(C2CC2)c2cc(N3CCNCC3)c(F)cc2c1=O [CPFX, ciprofloxacin, reference compound]		≤ 0.003	≤ 0.003	0.025 (≈ 0.0754 µM)	0.05 (≈ 0.151 µM)	0.025 (≈ 0.0754 µM)	0.1 (≈ 0.302 µM)	0.2 (≈ 0.604 µM)	0.78 (≈ 2.35 µM)	> 6.25	0.39 (≈ 1.18 µM)					6/6**^## (6/6**^##)	0/6 (0/6)
Cc1c(N2CC3(CC3)[C@](C)(N)C2)ccc2c(=O)c(C(=O)O)cn(C3CC3)c12 [Example 30, 7-[(7S)-7-Amino-7-methyl-5-azaspiro[2.4]heptan-5-yl]-1-cyclopropyl-8-methyl-1,4-dihydro-4-oxoquinoline-3-carboxylic acid]	227 to 230 °C	0.006 (≈ 0.0163 µM)	0.025 (≈ 0.068 µM)	0.1 (≈ 0.272 µM)	0.2 (≈ 0.544 µM)	0.05 (≈ 0.136 µM)	0.05 (≈ 0.136 µM)	0.2 (≈ 0.544 µM)	0.39 (≈ 1.06 µM)	1.56 (≈ 4.25 µM)	0.2 (≈ 0.544 µM)						
COc1c(N2C[C@H](CF)[C@](C)(N)C2)c(F)cc2c(=O)c(C(=O)O)cn(C3CC3)c12 [Example 21, 7-[(3S,4S)-3-Amino-4-fluoromethyl-3-methylpyrrolidin-1-yl]-1-cyclopropyl-6-fluoro-8-methoxy-1,4-dihydro-4-oxoquinoline-3-carboxylic acid]	226 to 229 °C	0.012 (≈ 0.0295 µM)	0.05 (≈ 0.123 µM)	0.2 (≈ 0.491 µM)	0.78 (≈ 1.91 µM)	0.2 (≈ 0.491 µM)	0.025 (≈ 0.0614 µM)	0.1 (≈ 0.245 µM)	0.2 (≈ 0.491 µM)	0.78 (≈ 1.91 µM)	0.1 (≈ 0.245 µM)						
Cc1c(N2CC3(CC3)[C@](C)(N)C2)ccc2c(=O)c(C(=O)O)cn([C@@H]3C[C@@H]3F)c12 [Example 29, 7-[(7S)-7-Amino-7-methyl-5-azaspiro[2.4]heptan-5-yl]-1-[(1R,2S)-2-fluorocyclopropyl]-8-methyl-1,4-dihydro-4-oxoquinoline-3-carboxylic acid]	157 to 159 °C	0.05 (≈ 0.13 µM)	0.025 (≈ 0.0649 µM)	0.2 (≈ 0.519 µM)	0.2 (≈ 0.519 µM)	0.1 (≈ 0.259 µM)	0.05 (≈ 0.13 µM)	0.2 (≈ 0.519 µM)	0.78 (≈ 2.02 µM)	3.13 (≈ 8.12 µM)	0.39 (≈ 1.01 µM)						
C=C1CN(c2c(F)cc3c(=O)c(C(=O)O)cn([C@@H]4C[C@@H]4F)c3c2OC)C[C@]1(C)N [Example 17, 7-[(3R)-3-Amino-3-methyl-4-methylenepyrrolidine-1-yl]-6-fluoro-1-[(1R,2S)-2-fluorocyclopropyl]-8-methoxy-1,4-dihydro-4-oxoquinoline-3-carboxylic acid]	236 to 239 °C (dec.)	0.006 (≈ 0.0148 µM)	0.012 (≈ 0.0296 µM)	0.1 (≈ 0.247 µM)	0.39 (≈ 0.962 µM)	0.1 (≈ 0.247 µM)	0.025 (≈ 0.0617 µM)	0.1 (≈ 0.247 µM)	0.2 (≈ 0.493 µM)	0.39 (≈ 0.962 µM)	0.1 (≈ 0.247 µM)						
C[C@H]1COc2c(N3CC(C)(N)C4(CC4)C3)c(F)cc3c(=O)c(C(=O)O)cn1c23 (stereo partly drawn) [Example 16, (3S)-10-(7-Amino-7-methyl-5-azaspiro[2.4]heptane-5-yl)-9-fluoro-2,3-dihydro-3-methyl-7-oxo-7H-pyrido[1,2,3-de][1,4]benzoxazine-6-carboxylic acid]	268 to 270 °C	0.012 (≈ 0.031 µM)	0.006 (≈ 0.0155 µM)	0.1 (≈ 0.258 µM)	0.1 (≈ 0.258 µM)	0.05 (≈ 0.129 µM)	0.025 (≈ 0.0645 µM)	0.1 (≈ 0.258 µM)	0.39 (≈ 1.01 µM)	3.13 (≈ 8.08 µM)	0.2 (≈ 0.516 µM)						

— patent US7563805B2, “Tri-, tetra-substituted-3-aminopyrrolidine derivative” (Daiichi Pharmaceutical Co., Ltd., priority 2005, dated 2009)
